Source: patent US20180334447A1, “2,3,4,5-TETRAHYDROPYRIDIN-6-AMINE DERIVATIVES” (JANSSEN PHARMACEUTICA NV, priority 2015, published 2018)

molecular target: T1, recombinant BACE1 protein (Homo sapiens, UniProt P56817); assay: BACE1 biochemical FRET based assay - Method 1; details: BACE1, 120 minutes at room temperature, pH 5.0; read-out: Biochemical FRET based assay - Method 1 pIC50 (converted)
T1 construct: recombinant BACE1 protein in a final concentration of 1 μg/ml
Text: (§1) This assay is a Fluorescence Resonance Energy Transfer Assay (FRET) based assay. The substrate for this assay is an APP derived 13 amino acids peptide that contains the ‘Swedish’ Lys-Met/Asn-Leu mutation of the amyloid precursor protein (APP) beta-secretase cleavage site. This substrate also contains two fluorophores: (7-methoxycoumarin-4-yl) acetic acid (Mca) is a fluorescent donor with excitation wavelength at 320 nm and emission at 405 nm and 2,4-Dinitrophenyl (Dnp) is a proprietary quencher acceptor. […] Upon cleavage by BACE1, the fluorophore Mca is separated from the quenching group Dnp, restoring the full fluorescence yield of the donor. The increase in fluorescence is linearly related to the rate of proteolysis.
Briefly in a 384-well format recombinant BACE1 protein in a final concentration of 1 μg/ml is incubated for 120 minutes at room temperature with 10 μm substrate in incubation buffer (40 mM Citrate buffer pH 5.0, 0.04% PEG, 4% DMSO) in the absence or presence of compound. Next the amount of proteolysis is directly measured by fluorescence measurement at T=0 and T=120 (excitation at 320 nm and emission at 405 nm). Results are expressed in RFU (Relative Fluorescence Units), as difference between T120 and T0.
(§2) A best-fit curve is fitted by a minimum sum of squares method to the plot of % Controlmin versus compound concentration. From this an IC50 value (inhibitory concentration causing 50% inhibition of activity) can be obtained.

T1 sequence (P56817 46-501): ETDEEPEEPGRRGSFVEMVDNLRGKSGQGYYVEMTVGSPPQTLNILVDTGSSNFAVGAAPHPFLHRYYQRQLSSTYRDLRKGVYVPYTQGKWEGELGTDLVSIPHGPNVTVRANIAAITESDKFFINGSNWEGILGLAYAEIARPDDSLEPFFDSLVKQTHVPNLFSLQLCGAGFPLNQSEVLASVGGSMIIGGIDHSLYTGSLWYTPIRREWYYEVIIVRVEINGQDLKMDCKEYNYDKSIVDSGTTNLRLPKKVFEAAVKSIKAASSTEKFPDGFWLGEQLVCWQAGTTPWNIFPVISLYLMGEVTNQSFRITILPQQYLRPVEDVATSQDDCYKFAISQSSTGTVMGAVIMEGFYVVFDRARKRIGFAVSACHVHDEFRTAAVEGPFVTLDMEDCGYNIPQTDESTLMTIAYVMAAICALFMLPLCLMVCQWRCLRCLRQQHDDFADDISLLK

Structure (SMILES) | IC50 [nM]
COc1cnc(C(=O)Nc2ccc(F)c(C3(C)CCC(C)(C#N)C(N)=N3)c2)cn1 (single isomer, unassigned) [Compound 15] | 9.77
COc1cnc(C(=O)Nc2ccc(F)c(C3(C)CCC(C)(C#N)C(N)=N3)c2)cn1 (single isomer, unassigned) [Compound 16] | 257
COc1cnc(C(=O)Nc2ccc(F)c([C@]3(CF)CC[C@](C)(S(C)(=O)=O)C(N)=N3)c2)cn1 [Compound 1] | 2630
COc1cnc(C(=O)Nc2ccc(F)c([C@]3(CF)CC[C@](C)(C#N)C(N)=N3)c2)cn1 [Compound 4] | 851
COc1cnc(C(=O)Nc2ccc(F)c([C@]3(CF)CC[C@@](C)(C#N)C(N)=N3)c2)cn1 [Compound 5] | 53.7
COc1cnc(C(=O)Nc2ccc(F)c([C@@]3(C)N=C(N)[C@@](C)(C#N)C[C@H]3F)c2)cn1 [Compound 6] | 145
COc1cnc(C(=O)Nc2ccc(F)c([C@@]3(C)N=C(N)[C@@](C)(C#N)C[C@@H]3F)c2)cn1 [Compound 7] | 79.4
COc1cnc(C(=O)Nc2ccc(F)c([C@@]3(C)N=C(N)[C@](C)(C#N)C[C@@H]3F)c2)cn1 [Compound 8] | 12.9
COc1cnc(C(=O)Nc2ccc(F)c([C@]3(C)CC[C@@](C)(S(C)(=O)=O)C(N)=N3)c2)cn1 [Compound 10] | 3.89
COc1cnc(C(=O)Nc2ccc(F)c([C@]3(C(F)F)CC[C@](C)(C#N)C(N)=N3)c2)cn1 [Compound 11] | 138
COc1cnc(C(=O)Nc2ccc(F)c([C@@]3(C(F)F)CC[C@@](C)(C#N)C(N)=N3)c2)cn1 [Compound 12] | 6760
COc1cnc(C(=O)Nc2ccc(F)c([C@@]3(C(F)F)CC[C@](C)(C#N)C(N)=N3)c2)cn1 [Compound 13] | > 10000
COc1cnc(C(=O)Nc2ccc(F)c([C@]3(C(F)F)CC[C@@](C)(C#N)C(N)=N3)c2)cn1 [Compound 14] | 11.7
COc1cnc(C(=O)Nc2ccc(F)c([C@@]3(C)N=C(N)[C@](C)(S(C)(=O)=O)C[C@@H]3F)c2)cn1 [Compound 17] | 30.9

system: Abeta 1-42 produced and secreted into the medium of human neuroblastoma SKNBE2 cells; assay: Cellular αLisa assay in SKNBE2 cells, Abeta 42; type: cell-based; details: Homo sapiens, SKNBE2, 18 h, SKNBE2 cells expressing hAPP695, incubated for 18 hours; read-out: Cellular αLisa assay in SKNBE2 cells Abeta 42 pIC50 (converted)
Experimental: In two αLisa assays the levels of Abeta 1-42 produced and secreted into the medium of human neuroblastoma SKNBE2 cells are quantified. The assay is based on the human neuroblastoma SKNBE2 expressing the wild type Amyloid Precursor Protein (hAPP695). The compounds are diluted and added to these cells, incubated for 18 hours and then measurements of Abeta 1-42 are taken. Abeta 1-42 are measured by sandwich αLisa. αLisa is a sandwich assay using biotinylated antibody AbN/25 attached to streptavidin coated beads and antibody cAb42/26 conjugated acceptor beads for the detection of Abeta 1-42 respectively. In the presence of Abeta 1-42, the beads come into close proximity. The excitation of the donor beads provokes the release of singlet oxygen molecules that trigger a cascade of energy transfer in the acceptor beads, resulting in light emission. Light emission is measured after 1 hour incubation (excitation at […] and emission at 615 nm).
as §2

Structure (SMILES) | IC50 [nM]
COc1cnc(C(=O)Nc2ccc(F)c([C@]3(CF)CC[C@](C)(S(C)(=O)=O)C(N)=N3)c2)cn1 [Compound 1] | 1350
COc1cnc(C(=O)Nc2ccc(F)c([C@]3(CF)CC[C@](C)(C#N)C(N)=N3)c2)cn1 [Compound 4] | 692
COc1cnc(C(=O)Nc2ccc(F)c([C@]3(CF)CC[C@@](C)(C#N)C(N)=N3)c2)cn1 [Compound 5] | 50.1
COc1cnc(C(=O)Nc2ccc(F)c([C@@]3(C)N=C(N)[C@@](C)(C#N)C[C@H]3F)c2)cn1 [Compound 6] | 240
COc1cnc(C(=O)Nc2ccc(F)c([C@@]3(C)N=C(N)[C@@](C)(C#N)C[C@@H]3F)c2)cn1 [Compound 7] | 66.1
COc1cnc(C(=O)Nc2ccc(F)c([C@@]3(C)N=C(N)[C@](C)(C#N)C[C@@H]3F)c2)cn1 [Compound 8] | 13.2
COc1cnc(C(=O)Nc2ccc(F)c([C@]3(C)CC[C@@](C)(S(C)(=O)=O)C(N)=N3)c2)cn1 [Compound 10] | 1.12
COc1cnc(C(=O)Nc2ccc(F)c([C@]3(C(F)F)CC[C@](C)(C#N)C(N)=N3)c2)cn1 [Compound 11] | 339
COc1cnc(C(=O)Nc2ccc(F)c([C@@]3(C(F)F)CC[C@@](C)(C#N)C(N)=N3)c2)cn1 [Compound 12] | > 8910
COc1cnc(C(=O)Nc2ccc(F)c([C@@]3(C(F)F)CC[C@](C)(C#N)C(N)=N3)c2)cn1 [Compound 13] | > 8910
COc1cnc(C(=O)Nc2ccc(F)c([C@]3(C(F)F)CC[C@@](C)(C#N)C(N)=N3)c2)cn1 [Compound 14] | 49
COc1cnc(C(=O)Nc2ccc(F)c([C@@]3(C)N=C(N)[C@](C)(S(C)(=O)=O)C[C@@H]3F)c2)cn1 [Compound 17] | 14.5

same assay, conditions: SKNBE2 cells expressing hAPP695, incubated for 18 hours

Structure (SMILES) | Cellular αLisa assay in SKNBE2 cells Abeta 42 pIC50
COc1cnc(C(=O)Nc2ccc(F)c(C3(C)CCC(C)(C#N)C(N)=N3)c2)cn1 (single isomer, unassigned) [Compound 15] | 8.16
COc1cnc(C(=O)Nc2ccc(F)c(C3(C)CCC(C)(C#N)C(N)=N3)c2)cn1 (single isomer, unassigned) [Compound 16] | 7.35

molecular target: T2, recombinant BACE2 protein (Homo sapiens, UniProt Q9Y5Z0); assay: BACE2 biochemical FRET based assay; details: BACE2, 450 minutes at room temperature, pH 5.0; read-out: Biochemical FRET based assay pIC50 (converted)
T2 construct: recombinant BACE2 protein in a final concentration of 0.4 μg/ml
T2 sequence (Q9Y5Z0 63-518): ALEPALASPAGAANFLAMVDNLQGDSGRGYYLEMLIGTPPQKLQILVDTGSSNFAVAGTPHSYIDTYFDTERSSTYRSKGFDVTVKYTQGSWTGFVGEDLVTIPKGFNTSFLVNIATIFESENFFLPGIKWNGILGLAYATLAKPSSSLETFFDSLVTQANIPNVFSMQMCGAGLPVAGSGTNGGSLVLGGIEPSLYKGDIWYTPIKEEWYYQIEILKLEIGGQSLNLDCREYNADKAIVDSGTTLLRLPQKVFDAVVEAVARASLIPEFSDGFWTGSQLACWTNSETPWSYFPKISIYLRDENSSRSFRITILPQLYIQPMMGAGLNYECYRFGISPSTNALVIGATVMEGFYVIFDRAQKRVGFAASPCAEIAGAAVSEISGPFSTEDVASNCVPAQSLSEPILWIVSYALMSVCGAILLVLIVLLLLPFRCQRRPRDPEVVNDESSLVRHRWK
Text: as §1, with “assay” for “assay is an APP derived 13 amino acids peptide that”, “the beta-secretase,” for “BACE1,”
Briefly in a 384-well format recombinant BACE2 protein in a final concentration of 0.4 μg/ml is incubated for 450 minutes at room temperature with 10 μM substrate in incubation buffer (50 mM Citrate buffer pH 5.0, 0.05% PEG, no DMSO) in the absence or presence of compound. Next the amount of proteolysis is directly measured by fluorescence measurement at T=0 and T=450 (excitation at 320 nm and emission at 405 nm). Results are expressed in RFU (Relative Fluorescence Units), as difference between T450 and T0.
as §2

Structure (SMILES) | IC50 [nM]
COc1cnc(C(=O)Nc2ccc(F)c(C3(C)CCC(C)(C#N)C(N)=N3)c2)cn1 (single isomer, unassigned) [Compound 15] | 66.1
COc1cnc(C(=O)Nc2ccc(F)c(C3(C)CCC(C)(C#N)C(N)=N3)c2)cn1 (single isomer, unassigned) [Compound 16] | 1350
COc1cnc(C(=O)Nc2ccc(F)c([C@]3(CF)CC[C@](C)(S(C)(=O)=O)C(N)=N3)c2)cn1 [Compound 1] | > 10000
COc1cnc(C(=O)Nc2ccc(F)c([C@]3(CF)CC[C@](C)(C#N)C(N)=N3)c2)cn1 [Compound 4] | 5750
COc1cnc(C(=O)Nc2ccc(F)c([C@]3(CF)CC[C@@](C)(C#N)C(N)=N3)c2)cn1 [Compound 5] | 417
COc1cnc(C(=O)Nc2ccc(F)c([C@@]3(C)N=C(N)[C@@](C)(C#N)C[C@H]3F)c2)cn1 [Compound 6] | 537
COc1cnc(C(=O)Nc2ccc(F)c([C@@]3(C)N=C(N)[C@@](C)(C#N)C[C@@H]3F)c2)cn1 [Compound 7] | 562
COc1cnc(C(=O)Nc2ccc(F)c([C@@]3(C)N=C(N)[C@](C)(C#N)C[C@@H]3F)c2)cn1 [Compound 8] | 70.8
COc1cnc(C(=O)Nc2ccc(F)c([C@]3(C)CC[C@@](C)(S(C)(=O)=O)C(N)=N3)c2)cn1 [Compound 10] | 21.9
COc1cnc(C(=O)Nc2ccc(F)c([C@]3(C(F)F)CC[C@](C)(C#N)C(N)=N3)c2)cn1 [Compound 11] | 891
COc1cnc(C(=O)Nc2ccc(F)c([C@@]3(C(F)F)CC[C@@](C)(C#N)C(N)=N3)c2)cn1 [Compound 12] | > 10000
COc1cnc(C(=O)Nc2ccc(F)c([C@@]3(C(F)F)CC[C@](C)(C#N)C(N)=N3)c2)cn1 [Compound 13] | > 10000
COc1cnc(C(=O)Nc2ccc(F)c([C@]3(C(F)F)CC[C@@](C)(C#N)C(N)=N3)c2)cn1 [Compound 14] | 115
COc1cnc(C(=O)Nc2ccc(F)c([C@@]3(C)N=C(N)[C@](C)(S(C)(=O)=O)C[C@@H]3F)c2)cn1 [Compound 17] | 93.3
